Patent US5624923A, “Tricyclic diazepine vasopressin antagonists and oxytocin antagonists” (priority 1995, dated 1997)

Key:
oxytocin receptors = target: T1, oxytocin receptors (Rattus norvegicus, UniProt P70536); experiment: Oxytocin Receptor Binding; details: for inhibition at 10 µM: [3H]oxytocin; for IC50: 1.0 nM [3H]oxytocin
T1 construct: The uteri are dissected out, cleaned of fat and connective tissues; from tissue; host or cells: uterus of DES-treated female Sprague-Dawley rats
T1 sequence (P70536 1-388): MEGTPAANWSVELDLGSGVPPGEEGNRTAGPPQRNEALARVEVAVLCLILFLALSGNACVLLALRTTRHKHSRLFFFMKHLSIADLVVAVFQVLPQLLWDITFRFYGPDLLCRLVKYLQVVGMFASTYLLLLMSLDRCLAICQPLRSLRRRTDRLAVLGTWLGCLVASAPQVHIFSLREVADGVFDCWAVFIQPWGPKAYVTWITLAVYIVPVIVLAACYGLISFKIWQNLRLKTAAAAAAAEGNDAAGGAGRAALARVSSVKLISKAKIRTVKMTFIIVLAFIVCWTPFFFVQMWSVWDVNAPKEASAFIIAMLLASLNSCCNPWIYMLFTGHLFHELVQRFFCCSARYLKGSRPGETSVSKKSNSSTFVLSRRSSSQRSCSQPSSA
Summary of the method: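 IC50 is the concentration displacing 50% of 1.0 nM [3H]OT, incubated 60 min at 22 °C in pH 7.4 Tris/MgCl2 buffer plus protease inhibitors, then filtered. Receptor source: uterine membranes from rats given 0.3 mg/kg DES i.m. 18 h earlier. 1.0 uM cold OT defined non-specific binding.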

[1] = target: T2, Rat Kidney Medullary V2 Receptors (Rattus norvegicus, UniProt Q00788); experiment: Binding Assay to Rat Kidney Medullary V2 Receptors; details: for inhibition at 10 µM: rat; for IC50: rat kidney medulla membranes, read-out: V2 IC50
T2 construct: Medullary tissues from rat kidneys are dissected out; from tissue; host or cells: rat kidney medulla membranes
T2 sequence (Q00788 whole entry): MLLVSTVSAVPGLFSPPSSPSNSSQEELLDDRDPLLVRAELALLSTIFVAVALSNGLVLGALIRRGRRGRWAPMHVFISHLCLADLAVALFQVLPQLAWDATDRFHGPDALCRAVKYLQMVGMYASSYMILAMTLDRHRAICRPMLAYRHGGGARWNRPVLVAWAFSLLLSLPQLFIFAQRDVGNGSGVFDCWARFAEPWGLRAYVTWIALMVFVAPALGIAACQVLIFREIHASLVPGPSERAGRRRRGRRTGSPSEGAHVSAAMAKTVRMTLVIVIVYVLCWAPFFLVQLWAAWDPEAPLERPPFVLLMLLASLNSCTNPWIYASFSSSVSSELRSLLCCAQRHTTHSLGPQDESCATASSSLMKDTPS
Summary of the method: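 IC50 derived from competition curves; bound tritium counted by liquid scintillation after filtration. Rat medullary kidney membranes (Tris-HCl pH 7.4, BSA, PMSF) were incubated 120 min to equilibrium with radioligand and test compound (added in 50% DMSO). Nonspecific binding: 1.0 μM unlabeled ligand.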

inhibition at 10 µM (oxytocin receptors)	inhibition at 10 µM [1]	IC50 [1]	IC50 (oxytocin receptors)	SMILES
49%	93%	–	–	Cc1ccccc1C(=O)Nc1ccc(C(=O)N2Cc3ccc(C(=O)C(F)(F)F)n3Cc3ccccc32)c(Cl)c1 [Example 595, N-[4-[[3-(Trifluoroacetyl)-5H-pyrrolo[2,1-c][1,4]benzodiazepin-10(11H)-yl]carbonyl]-3-chlorophenyl]-2-methylbenzamide]
88%	–	3.4 nM	240 nM	Cc1c(F)cccc1C(=O)Nc1ccc(C(=O)N2Cc3cccn3Cc3ccccc32)c(Cl)c1 [Example 481, N-[4-(5H-pyrrolo[2,1-c][1,4]benzodiazepin-10(11H)-ylcarbonyl)-3-chlorophenyl]-3-fluoro-2-methylbenzamide]
91%	–	15 nM	320 nM	Cc1c(F)cccc1C(=O)Nc1ccc(C(=O)N2Cc3ccnn3Cc3ccccc32)cc1 [Example 517, N-[4-(4H-Pyrazolo[5,1-c][1,4]benzodiazepin-5(10H)-ylcarbonyl)phenyl]-3-fluoro-2-methylbenzamide]
12%	81%	–	–	O=C(CN1CCOCC1)Nc1ccc(C(=O)N2Cc3cccn3Cc3ccccc32)cc1 [Example 590, N-[4-(5H-pyrrolo[2,1-c][1,4]benzodiazepin-10(11H)-ylcarbonyl)phenyl]-4-morpholineacetamide]
96%	–	14 nM	675 nM	O=C(Nc1ccc(C(=O)N2Cc3ccc(Cn4ccnc4)n3Cc3ccccc32)cc1)c1ccc(Cl)cc1Cl [Example 582, 2,4-Dichloro-N-[4-[[3-(1H-imidazol-1-ylmethyl)-5H-pyrrolo[2,1-c][1,4]benzodiazepin-10(11H)-yl]carbonyl]phenyl]benzamide]
90%	–	12 nM	2000 nM	O=C(Nc1ccc(C(=O)N2Cc3cccn3Cc3ccccc32)cc1)C(O)c1ccccc1 (racemic) [Example 588, (±) α-Hydroxy-N-[4-(5H-pyrrolo[2,1c][1,4]benzodiazepin-10(11H)-ylcarbonyl)phenyl]benzeneacetamide]

Continued, molecule first:

SMILES	inhibition at 10 µM (oxytocin receptors)	inhibition at 10 µM [1]	IC50 [1]	IC50 (oxytocin receptors)
O=C(Nc1ccc(C(=O)N2Cc3cccn3Cc3ccccc32)cc1)c1cccc(C(F)(F)F)c1 [Example 474, N-[4-(5H-pyrrolo[2,1-c][1,4]benzodiazepin-10(11H)-ylcarbonyl)phenyl]-3-(trifluoromethyl)benzamide]	18%	–	38 nM	–
Cc1ccccc1C(=O)Nc1ccc(C(=O)N2Cc3cccn3Cc3ccccc32)cc1 [Example 3, 2-Methyl-N-[4-(5H-pyrrolo[2,1-c][1,4]-benzodiazepin-10(11H)-ylcarbonyl)phenyl]benzamide]	90%	–	4 nM	360 nM
CSc1ccccc1C(=O)Nc1ccc(C(=O)N2Cc3cccn3Cc3ccccc32)cc1 [Example 85, N-[4-(5H-Pyrrolo[2,1-c][1,4]benzodiazepin-10(11H)-ylcarbonyl)phenyl]-2-(methylthio)benzamide]	98%	–	13 nM	460 nM
O=C(Nc1ccc(C(=O)N2Cc3cccn3Cc3ccccc32)cc1)c1c(Cl)cccc1Cl [Example 469, N-[4-(5H-pyrrolo[2,1-c][1,4]benzodiazepin-10(11H)-ylcarbonyl)phenyl]-2,6-dichlorobenzamide]	96%	–	15 nM	265 nM
